Results: ChEMBL document CHEMBL4334535, “Novel Pyrazolyl-dihydroisoquinolines as Positive Allosteric Modulator of the Dopamine D1 Receptor” (ACS Med Chem Lett, 2020)
Activity calls are given as the source filed them. The calls are words filed in the database; no cut-off is given here.

Tests used:
D(1A) dopamine receptor [1] = target: T1, D(1A) dopamine receptor (Homo sapiens, UniProt P21728); assay: Potentiation of dopamine-induced positive allosteric modulation of human D1 receptor expressed in HEK293 cells assessed as cAMP production measured after 60 to 90 mins by HTRF assay relative to control; format: functional, cell-based; parameters: concentration or dose not given beside the values
D(1A) dopamine receptor [2] = target: T1, D(1A) dopamine receptor; assay: Positive allosteric modulation of human D1 receptor expressed in HEK293 assessed as cAMP production incubated for 60 mins by HTRF assay; format: functional, cell-based
Mus musculus = assay: Increase in basal locomotor activity in transgenic knockout C57BL/6 mouse expressing human D1 receptor mouse at 10 ml/kg, po measured every 10 mins for 60 mins by automated system analysis; format: functional, organism-based

T1 sequence (P21728 whole entry): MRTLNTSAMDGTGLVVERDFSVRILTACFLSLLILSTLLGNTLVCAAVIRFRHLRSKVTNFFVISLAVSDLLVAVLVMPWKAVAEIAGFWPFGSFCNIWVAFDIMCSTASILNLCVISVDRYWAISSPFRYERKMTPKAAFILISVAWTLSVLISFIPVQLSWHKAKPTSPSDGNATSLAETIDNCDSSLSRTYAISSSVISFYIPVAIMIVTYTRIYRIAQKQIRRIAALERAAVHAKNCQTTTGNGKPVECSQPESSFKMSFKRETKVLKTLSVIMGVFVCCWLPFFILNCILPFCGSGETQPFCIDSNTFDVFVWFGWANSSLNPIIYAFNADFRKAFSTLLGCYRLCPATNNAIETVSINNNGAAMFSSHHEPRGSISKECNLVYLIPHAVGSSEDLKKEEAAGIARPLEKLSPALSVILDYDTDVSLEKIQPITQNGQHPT

Structure (SMILES)	EC50 (D(1A) dopamine receptor [2])	Activity (Mus musculus)	Activity (D(1A) dopamine receptor [1])
C[C@H]1c2cccc(-c3cn[nH]c3)c2C[C@H](CO)N1C(=O)Cc1c(F)cccc1F	–	–	78.1%
C[C@H]1c2cccc(-c3cn[nH]c3)c2C[C@H](CO)N1C(=O)Cc1cc(F)ccc1Cl	–	–	79.8%
CCn1cc(-c2cccc3c2C[C@H](CO)N(C(=O)Cc2c(Cl)cccc2Cl)[C@H]3C)cn1	–	–	91.2%
C[C@H]1c2cccc(-c3cn[nH]c3)c2C[C@H](CO)N1C(=O)Cc1c(F)cccc1Cl	–	–	81.5%
C[C@H]1c2cccc(-c3cnn(C)c3)c2C[C@H](CO)N1C(=O)Cc1ccccc1Cl	–	–	80.4%
C[C@H]1c2cccc(-c3cnn(C4CC4)c3)c2C[C@H](CO)N1C(=O)Cc1c(Cl)cccc1Cl	–	–	88.1%
C[C@H]1c2cccc(-c3cn[nH]c3)c2C[C@H](CO)N1C(=O)Cc1ccc(F)cc1Cl	–	–	77.1%

Continued, in another order:

EC50 (D(1A) dopamine receptor [2])	Activity (Mus musculus)	Structure (SMILES)	Activity (D(1A) dopamine receptor [1])
0.0183 µM	–	C[C@H]1c2cccc(-c3cnn(CCO)c3)c2C[C@H](CO)N1C(=O)Cc1c(Cl)cccc1Cl	79.1%
–	Active	C[C@H]1c2cccc(-c3cn[nH]c3)c2C[C@H](CO)N1C(=O)Cc1c(Cl)cccc1Cl	75.9%
–	Active	C[C@H]1c2cccc(-c3cnn(C)c3)c2C[C@H](CO)N1C(=O)Cc1c(Cl)cccc1Cl	91.4%
